Measured values reported in ChEMBL document CHEMBL3885861, “Open TG-GATES”.

Species: Rattus norvegicus
Test: Open TG-GATES - Regimen: Daily Repeat
Type: toxicity, organism-based, Sprague-Dawley
Set-up: regimen Daily Repeat, gender Male, age 6 weeks
Conditions: in vivo, po, 150 mg/kg, route gavage, dose level Middle; for APTT / Bas / Eos / Fbg / Hb / Ht / Lym / MCH / MCHC / MCV / Mono / Neu / PT / Plat / RBC / Ret / WBC: tissue Blood; for KIDNEY_L / KIDNEY_R / KIDNEY_TOTAL: tissue Kidney; for LIVER: tissue Liver; for A/G / ALP / ALT / AST / BUN / CRE / Ca / Cl / DBIL / GLC / IP / K / LDH / Na / PL / RALB / TBIL / TC / TG / TP / gamma-GTP: tissue Plasma

SMILES: CN1C(=O)OC(C)(C)C1=O [TRIMETHADIONE]
- TERMINAL_BW (72 h, time 3 day): 237.3 g
- APTT (72 h, time 3 day): 16.6 s
- Bas (72 h, time 3 day): 0%
- Eos (72 h, time 3 day): 1.2%
- Fbg (72 h, time 3 day): 277.6 mg/dL
- Hb (72 h, time 3 day): 13.9 g/dL
- Ht (72 h, time 3 day): 41.2%
- Lym (72 h, time 3 day): 73.4%
- MCH (72 h, time 3 day): 22 pg
- MCHC (72 h, time 3 day): 33.7%
- MCV (72 h, time 3 day): 65.2 fL
- Mono (72 h, time 3 day): 2.8%
- Neu (72 h, time 3 day): 22.6%
- PT (72 h, time 3 day): 13 s
- Plat (72 h, time 3 day): 127.9 x10_4/uL
- RBC (72 h, time 3 day): 632 x10_4/ul
- Ret (72 h, time 3 day): 6.9%
- WBC (72 h, time 3 day): 82.5 x10_2/uL
- KIDNEY_L (72 h, time 3 day): 1 g
- KIDNEY_R (72 h, time 3 day): 0.9 g
- KIDNEY_TOTAL (72 h, time 3 day): 1.9 g
- LIVER (72 h, time 3 day): 11.2 g
- A/G (72 h, time 3 day): 0.8
- ALP (72 h, time 3 day): 1577 IU/L
- ALT (72 h, time 3 day): 42.4 IU/L
- AST (72 h, time 3 day): 78.2 IU/L
- BUN (72 h, time 3 day): 17.2 mg/dL
- CRE (72 h, time 3 day): 0.2 mg/dL
- Ca (72 h, time 3 day): 11.2 mg/dL
- Cl (72 h, time 3 day): 105 meq/L
- DBIL (72 h, time 3 day): 0.004 mg/dL
- GLC (72 h, time 3 day): 180.6 mg/dL
- IP (72 h, time 3 day): 6.9 mg/dL
- K (72 h, time 3 day): 4.4 meq/L
- LDH (72 h, time 3 day): 85.6 IU/L
- Na (72 h, time 3 day): 142.2 meq/L
- PL (72 h, time 3 day): 172.8 mg/dL
- RALB (72 h, time 3 day): 2.6 g/dL
- TBIL (72 h, time 3 day): 0.042 mg/dL
- TC (72 h, time 3 day): 91.4 mg/dL
- TG (72 h, time 3 day): 115.6 mg/dL
- TP (72 h, time 3 day): 5.7 g/dL
- gamma-GTP (72 h, time 3 day): 1 IU/L
- TERMINAL_BW ([…], time 7 day): 275.1 g
- TERMINAL_BW ([…], time 14 day): 335.8 g
- TERMINAL_BW ([…], time 28 day): 410.9 g
- APTT ([…], time 7 day): 22.2 s
- Bas ([…], time 7 day): 0%
- Eos ([…], time 7 day): 1%
- Fbg ([…], time 7 day): 283.8 mg/dL
- Hb ([…], time 7 day): 13.8 g/dL
- Ht ([…], time 7 day): 40.4%
- Lym ([…], time 7 day): 75%
- MCH ([…], time 7 day): 21.5 pg
- MCHC ([…], time 7 day): 34.1%
- MCV ([…], time 7 day): 62.9 fL
- Mono ([…], time 7 day): 2.6%
- Neu ([…], time 7 day): 21.2%
- PT ([…], time 7 day): 13.9 s
- Plat ([…], time 7 day): 129.5 x10_4/uL
- RBC ([…], time 7 day): 642.6 x10_4/ul
- Ret ([…], time 7 day): 5.6%
- WBC ([…], time 7 day): 92.5 x10_2/uL
- APTT ([…], time 14 day): 25.9 s
- Bas ([…], time 14 day): 0.2%
- Eos ([…], time 14 day): 1%
- Fbg ([…], time 14 day): 268.4 mg/dL
- Hb ([…], time 14 day): 14.4 g/dL
- Ht ([…], time 14 day): 41.6%
- Lym ([…], time 14 day): 71.6%
- MCH ([…], time 14 day): 20.8 pg
- MCHC ([…], time 14 day): 34.6%
- MCV ([…], time 14 day): 60.2 fL
- Mono ([…], time 14 day): 2.2%
- Neu ([…], time 14 day): 24.6%
- PT ([…], time 14 day): 13.6 s
- Plat ([…], time 14 day): 123.5 x10_4/uL
- RBC ([…], time 14 day): 691.2 x10_4/ul
- Ret ([…], time 14 day): 4.5%
- WBC ([…], time 14 day): 132.8 x10_2/uL
- APTT ([…], time 28 day): 21.9 s
- Bas ([…], time 28 day): 0%
- Eos ([…], time 28 day): 1.2%
- Fbg ([…], time 28 day): 270.8 mg/dL
- Hb ([…], time 28 day): 15.8 g/dL
- Ht ([…], time 28 day): 45%
- Lym ([…], time 28 day): 74.8%
- MCH ([…], time 28 day): 19.6 pg
- MCHC ([…], time 28 day): 35%
- MCV ([…], time 28 day): 56.2 fL
- Mono ([…], time 28 day): 2%
- Neu ([…], time 28 day): 21.8%
- PT ([…], time 28 day): 14.3 s
- Plat ([…], time 28 day): 113.7 x10_4/uL
- RBC ([…], time 28 day): 800.2 x10_4/ul
- Ret ([…], time 28 day): 2%
- WBC ([…], time 28 day): 103.2 x10_2/uL
- KIDNEY_L ([…], time 7 day): 1.3 g
- KIDNEY_R ([…], time 7 day): 1.2 g
- KIDNEY_TOTAL ([…], time 7 day): 2.5 g
- KIDNEY_L ([…], time 14 day): 1.4 g
- KIDNEY_R ([…], time 14 day): 1.4 g
- KIDNEY_TOTAL ([…], time 14 day): 2.8 g
- KIDNEY_L ([…], time 28 day): 1.6 g
- KIDNEY_R ([…], time 28 day): 1.7 g
- KIDNEY_TOTAL ([…], time 28 day): 3.3 g
- LIVER ([…], time 7 day): 13 g
- LIVER ([…], time 14 day): 15.2 g
- LIVER ([…], time 28 day): 16.5 g
- A/G ([…], time 7 day): 0.9
- ALP ([…], time 7 day): 1744.2 IU/L
- ALT ([…], time 7 day): 51.6 IU/L
- AST ([…], time 7 day): 85.6 IU/L
- BUN ([…], time 7 day): 15.8 mg/dL
- CRE ([…], time 7 day): 0.2 mg/dL
- Ca ([…], time 7 day): 10.8 mg/dL
- Cl ([…], time 7 day): 103.4 meq/L
- DBIL ([…], time 7 day): 0.01 mg/dL
- GLC ([…], time 7 day): 192.6 mg/dL
- IP ([…], time 7 day): 6.9 mg/dL
- K ([…], time 7 day): 4.2 meq/L
- LDH ([…], time 7 day): 92.4 IU/L
- Na ([…], time 7 day): 144.2 meq/L
- PL ([…], time 7 day): 159.8 mg/dL
- RALB ([…], time 7 day): 2.6 g/dL
- TBIL ([…], time 7 day): 0.04 mg/dL
- TC ([…], time 7 day): 74.2 mg/dL
- TG ([…], time 7 day): 138.2 mg/dL
- TP ([…], time 7 day): 5.7 g/dL
- gamma-GTP ([…], time 7 day): 1.2 IU/L
- A/G ([…], time 14 day): 0.8
- ALP ([…], time 14 day): 1516.8 IU/L
- ALT ([…], time 14 day): 46.8 IU/L
- AST ([…], time 14 day): 73.2 IU/L
- BUN ([…], time 14 day): 16.4 mg/dL
- CRE ([…], time 14 day): 0.2 mg/dL
- Ca ([…], time 14 day): 10.7 mg/dL
- Cl ([…], time 14 day): 102.6 meq/L
- DBIL ([…], time 14 day): 0.004 mg/dL
- GLC ([…], time 14 day): 180.6 mg/dL
- IP ([…], time 14 day): 6.6 mg/dL
- K ([…], time 14 day): 4.2 meq/L
- LDH ([…], time 14 day): 116.4 IU/L
- Na ([…], time 14 day): 144.2 meq/L
- PL ([…], time 14 day): 154.4 mg/dL
- RALB ([…], time 14 day): 2.7 g/dL
- TBIL ([…], time 14 day): 0.032 mg/dL
- TC ([…], time 14 day): 73.2 mg/dL
- TG ([…], time 14 day): 138.8 mg/dL
- TP ([…], time 14 day): 6.2 g/dL
- gamma-GTP ([…], time 14 day): 1 IU/L
- A/G ([…], time 28 day): 0.8
- ALP ([…], time 28 day): 1150.5 IU/L
- ALT ([…], time 28 day): 37.8 IU/L
- AST ([…], time 28 day): 77.5 IU/L
- BUN ([…], time 28 day): 16 mg/dL
- CRE ([…], time 28 day): 0.3 mg/dL
- Ca ([…], time 28 day): 10.4 mg/dL
- Cl ([…], time 28 day): 101.8 meq/L
- DBIL ([…], time 28 day): 0.005 mg/dL
- GLC ([…], time 28 day): 170.8 mg/dL
- IP ([…], time 28 day): 5.5 mg/dL
- K ([…], time 28 day): 4.1 meq/L
- LDH ([…], time 28 day): 77.2 IU/L
- Na ([…], time 28 day): 143 meq/L
- PL ([…], time 28 day): 161 mg/dL
- RALB ([…], time 28 day): 2.7 g/dL
- TBIL ([…], time 28 day): 0.0325 mg/dL
- TC ([…], time 28 day): 76.8 mg/dL
- TG ([…], time 28 day): 146.8 mg/dL
- TP ([…], time 28 day): 6.2 g/dL
- gamma-GTP ([…], time 28 day): 1.2 IU/L
